Experimental data taken from EPA's ToxValDB 9.5.

Assays:
Bird = conditions: reproductive, in ovo, M/F, White leghorn chicken, generation: F1
[1] = tested on: Crangonyx richmondensis ssp. laurentianus; conditions: whole body, Monoporeia affinis, parasite infection
Labeo boga = conditions: whole body, M/F
[2] = tested on: Crangonyx richmondensis ssp. laurentianus; experiment: FEL; higher = less toxic; conditions: short-term; duration: 22 day; whole body; M/F; Monoporeia affinis; parasite infection

O=S(=O)(O)C(F)(F)C(F)(F)C(F)(F)C(F)(F)C(F)(F)C(F)(F)C(F)(F)C(F)(F)F [Perfluorooctanesulfonic acid]
LOEL (mg ion/kg egg) (Bird; F1: IgM and IgY antibody titer (SRBC) + F1: plasma lysozyme activity + F1: spleen: spleen: relative weight): 0.93
NOEL (mg ion/kg egg) (Bird; F1: IgM antibody titer (SRBC) + F1: IgY antibody titer (SRBC) + F1: lymph node: normalized bursa mass + F1: PHA skin test (DTH response) + …): 4.6
NOEL ([1]; short-term, duration: 22 day, M/F): 0.2 mg/L
LOEL ([1]; subchronic, duration: 5 week, F): 0.01 mg/L
NOEL (Labeo boga; short-term, duration: 7 day, Oryzias Melastigma, mRNA level for C8 gene + mRNA level for CAT gene + mRNA level for CCL20 gene + mRNA level for Cd3 gene + mRNA level for GPx gene): 1 mg/L
LOEL (Labeo boga; short-term, duration: 7 day, Oryzias Melastigma, mRNA level for IL1b gene): 0.25 mg/L
LOEL (Labeo boga; short-term, duration: 10 day, Medaka, relative IL-1-beta mRNA expression + relative IL-8 mRNA expression + relative TNF-alpha mRNA expression): 1 mg/L
NOEL (Labeo boga; short-term, duration: 16 day, Thicklip grey mullet, relative apoA1 expression in liver (Day 2) + relative cc3 expression in liver (Day 16) + relative cc3 expression in liver (Day 2) + relative…): 2 ppm
LOEL (Labeo boga; short-term, duration: 16 day, Thicklip grey mullet, relative apoA1 expression in liver (Day 16) + relative fabp expression in liver (Day 2)): 2 ppm
LOEL (Labeo boga; short-term, duration: 21 day, Atlantic Salmon, cortisol): 0.1 mg/L
LOEL (Labeo boga; subchronic, duration: 48 day, Atlantic Salmon, cortisol): 0.1 mg/L
NOEL (Labeo boga; subchronic, duration: 48 day, Atlantic Salmon, fresh weight + length + thymus: thymus somatic index + thymus: thymus volume): 0.1 mg/L
LOEL (Labeo boga; subchronic, duration: 56 day, Atlantic Salmon, cortisol): 0.1 mg/L
FEL [2]: 5 mg/L
